Reference: ChEMBL document CHEMBL1201862, “PubChem BioAssay data set” (2004)
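All cell lines were grown in 96-well plates and treated with compound for 48 hours. GI50 marks 50% less growth.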 The source made the active and inactive calls. Cut-off read from the data, not from the text of the source: active = GI50 up to about 1.1 µM and inactive = higher.

Key:
Experiment in all cases: inhibition of tumour cell growth, NCI panel, 48 h
U-251 = tested on: U-251
M14 = tested on: M14
SR = tested on: SR
SF-268 = tested on: SF-268
SW-620 = tested on: SW-620
ACHN = tested on: ACHN
A549 = tested on: A549
NCI-H522 = tested on: NCI-H522
UO-31 = tested on: UO-31
CCRF-CEM = tested on: CCRF-CEM
SNB-19 = tested on: SNB-19
HCT-15 = tested on: HCT-15
SNB-75 = tested on: SNB-75
HT-29 = tested on: HT-29
OVCAR-8 = tested on: OVCAR-8
A498 = tested on: A498

SMILES | GI50 (U-251) | GI50 (M14) | GI50 (SR) | GI50 (SF-268) | GI50 (SW-620) | GI50 (ACHN) | GI50 (A549) | GI50 (NCI-H522) | GI50 (UO-31) | GI50 (CCRF-CEM) | GI50 (SNB-19) | GI50 (HCT-15) [µM] | GI50 (SNB-75) | GI50 (HT-29) | GI50 (OVCAR-8) | GI50 (A498)
CCOC1=C2N=C(Cc3ccccc3F)N=C2C(=O)c2ccccc21 | > 100 µM (inactive) | > 100 µM (inactive) | > 100 µM (inactive) | > 100 µM (inactive) | > 100 µM (inactive) | > 100 µM (inactive) | > 100 µM (inactive) | > 100 µM (inactive) | > 100 µM (inactive) | > 100 µM (inactive) | > 100 µM (inactive) | > 100 | 90.8 µM (inactive) | > 100 µM (inactive) | > 100 µM (inactive) | 
N#C/C(=C\c1cc(O)ccc1O)C(N)=O | 98.4 µM (inactive) | 38.6 µM (inactive) |  | 35.1 µM (inactive) | 49.9 µM (inactive) | 26.8 µM (inactive) | 78.5 µM (inactive) | 18.2 µM (inactive) | 35.7 µM (inactive) | 21.5 µM (inactive) | 57.8 µM (inactive) | 44.2 | 14.6 µM (inactive) | 38.8 µM (inactive) | 50.6 µM (inactive) | 41 µM (inactive)
COC12OCCN(C)C1=CC(=O)C1=NNC(C)C12 (centres undefined) | > 100 µM (inactive) | > 100 µM (inactive) |  |  | > 100 µM (inactive) |  | > 100 µM (inactive) | > 100 µM (inactive) | > 100 µM (inactive) | > 100 µM (inactive) |  | > 100 | > 100 µM (inactive) | > 100 µM (inactive) | > 100 µM (inactive) | > 100 µM (inactive)
O=C(O)CCNCCCCNCCC(=O)O | > 100 µM (inactive) | > 100 µM (inactive) |  | > 100 µM (inactive) | > 100 µM (inactive) | > 100 µM (inactive) | > 100 µM (inactive) | > 100 µM (inactive) |  | > 100 µM (inactive) | > 100 µM (inactive) | > 100 | > 100 µM (inactive) | > 100 µM (inactive) | > 100 µM (inactive) | > 100 µM (inactive)
O=C(O)c1cc(S(=O)(=O)N/N=C\c2c3ccccc3[n+]([O-])c3ccccc23)ccc1O | 23.2 µM (inactive) | 17.1 µM (inactive) |  | 11.7 µM (inactive) | 11.3 µM (inactive) | 18.6 µM (inactive) | 22.7 µM (inactive) | 8.3 µM (inactive) | 17.7 µM (inactive) | 8.57 µM (inactive) | 31.6 µM (inactive) | 5.96 | 2.58 µM (inactive) | 19.5 µM (inactive) | 12.7 µM (inactive) | 14.1 µM (inactive)
CCc1ccc(Cc2ccc(CC)c(NC(=O)C(=O)Cc3nc4ccccc4nc3C)c2CC)c(CC)c1NC(=O)C(=O)Cc1nc2ccccc2nc1C | 49.7 µM (inactive) | > 100 µM (inactive) |  | 33.3 µM (inactive) | > 100 µM (inactive) | 61.2 µM (inactive) | > 100 µM (inactive) | 26.4 µM (inactive) | 17.7 µM (inactive) | 42.7 µM (inactive) | 45.1 µM (inactive) | > 100 | 9.77 µM (inactive) |  | > 100 µM (inactive) | > 100 µM (inactive)
CCCCCCCCCCn1cccc1/C=C/c1ccc(/C=C/c2cccn2CCCCCCCCCC)cc1 | > 100 µM (inactive) | > 100 µM (inactive) |  | > 100 µM (inactive) | > 100 µM (inactive) | > 100 µM (inactive) | > 100 µM (inactive) | > 100 µM (inactive) | 88.7 µM (inactive) | > 100 µM (inactive) | > 100 µM (inactive) |  | > 100 µM (inactive) | > 100 µM (inactive) | > 100 µM (inactive) | > 100 µM (inactive)
